Data taken from the supplement of paper PMC8612539.

Test system: Escherichia coli
Test: minimum inhibitory concentration (MIC)
Experimental: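 Broth microdilution MIC (Sensititre BOPO7F bovine plate, CLSI methods) of 19 antimicrobials against field isolates of P. multocida, M. haemolytica, H. somni (deep nasopharyngeal swabs) and E. coli, Enterococcus spp. (rectal swabs) from weaned dairy heifers. Incubation 16-24 h at 35 C. MIC is the lowest concentration preventing visible growth. Values with <= or > lie at the tested range limits. Trimethoprim-sulfamethoxazole is given as the trimethoprim component of a 1:19 mixture.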

COc1cc(Cc2cnc(N)nc2N)cc(OC)c1OC.Cc1cc(NS(=O)(=O)c2ccc(N)cc2)no1 [trimethoprim-sulfamethoxazole]
Details	minimum inhibitory concentration [µg/mL]
isolate (source animal id): 1	≤ 2
isolate (source animal id): 2	> 2
isolate (source animal id): 3	≤ 2
isolate (source animal id): 4	≤ 2
isolate (source animal id): 5	> 2
isolate (source animal id): 6	> 2
isolate (source animal id): 7	> 2
isolate (source animal id): 8	≤ 2
isolate (source animal id): 9	> 2
isolate (source animal id): 10	> 2
isolate (source animal id): 11	≤ 2
isolate (source animal id): 12	> 2
isolate (source animal id): 13	≤ 2
isolate (source animal id): 14	> 2
isolate (source animal id): 15	≤ 2
isolate (source animal id): 16	≤ 2
isolate (source animal id): 17	> 2
isolate (source animal id): 18	≤ 2
isolate (source animal id): 19	≤ 2
isolate (source animal id): 20	> 2
isolate (source animal id): 21	≤ 2
isolate (source animal id): 22	≤ 2
isolate (source animal id): 23	≤ 2
isolate (source animal id): 24	≤ 2
isolate (source animal id): 25	> 2
isolate (source animal id): 26	≤ 2
isolate (source animal id): 27	> 2
isolate (source animal id): 28	≤ 2
isolate (source animal id): 29	> 2
isolate (source animal id): 30	> 2
isolate (source animal id): 31	> 2
isolate (source animal id): 32	> 2
isolate (source animal id): 33	> 2
isolate (source animal id): 34	≤ 2
isolate (source animal id): 35	> 2
isolate (source animal id): 36	> 2
isolate (source animal id): 37	> 2
isolate (source animal id): 38	> 2
isolate (source animal id): 39	> 2
isolate (source animal id): 40	≤ 2
isolate (source animal id): 41	> 2
isolate (source animal id): 42	> 2
isolate (source animal id): 43	> 2
isolate (source animal id): 44	≤ 2
isolate (source animal id): 45	> 2
isolate (source animal id): 46	≤ 2
isolate (source animal id): 47	> 2
isolate (source animal id): 48	> 2
isolate (source animal id): 49	> 2
isolate (source animal id): 50	> 2
isolate (source animal id): 51	> 2
isolate (source animal id): 52	≤ 2
isolate (source animal id): 53	> 2
isolate (source animal id): 54	≤ 2
isolate (source animal id): 55	≤ 2
isolate (source animal id): 56	≤ 2
isolate (source animal id): 57	> 2
isolate (source animal id): 58	≤ 2
isolate (source animal id): 59	≤ 2
isolate (source animal id): 60	≤ 2
isolate (source animal id): 61	> 2
isolate (source animal id): 62	≤ 2
isolate (source animal id): 63	≤ 2
isolate (source animal id): 64	≤ 2
isolate (source animal id): 65	> 2
isolate (source animal id): 66	≤ 2
isolate (source animal id): 67	≤ 2
isolate (source animal id): 68	≤ 2
isolate (source animal id): 69	≤ 2
isolate (source animal id): 70	≤ 2
isolate (source animal id): 71	≤ 2
isolate (source animal id): 72	≤ 2
isolate (source animal id): 73	≤ 2
isolate (source animal id): 74	≤ 2
isolate (source animal id): 75	≤ 2
isolate (source animal id): 76	> 2
isolate (source animal id): 77	≤ 2
isolate (source animal id): 78	> 2
isolate (source animal id): 79	≤ 2
isolate (source animal id): 80	≤ 2
isolate (source animal id): 81	> 2
isolate (source animal id): 82	≤ 2
isolate (source animal id): 83	≤ 2
isolate (source animal id): 84	≤ 2
isolate (source animal id): 85	≤ 2
isolate (source animal id): 86	> 2
isolate (source animal id): 87	≤ 2
isolate (source animal id): 88	≤ 2
isolate (source animal id): 89	≤ 2
isolate (source animal id): 90	≤ 2
isolate (source animal id): 91	≤ 2
isolate (source animal id): 92	≤ 2
isolate (source animal id): 93	≤ 2
isolate (source animal id): 94	> 2
isolate (source animal id): 95	≤ 2
isolate (source animal id): 96	≤ 2
isolate (source animal id): 97	> 2
isolate (source animal id): 98	≤ 2
isolate (source animal id): 99	≤ 2
isolate (source animal id): 100	≤ 2
isolate (source animal id): 101	> 2
isolate (source animal id): 102	≤ 2
isolate (source animal id): 103	≤ 2
isolate (source animal id): 104	≤ 2
isolate (source animal id): 105	≤ 2
isolate (source animal id): 106	> 2
isolate (source animal id): 107	≤ 2
isolate (source animal id): 108	≤ 2
isolate (source animal id): 109	≤ 2
isolate (source animal id): 110	≤ 2
isolate (source animal id): 111	≤ 2
isolate (source animal id): 112	≤ 2
isolate (source animal id): 113	≤ 2
isolate (source animal id): 114	≤ 2
isolate (source animal id): 115	> 2
isolate (source animal id): 116	≤ 2
isolate (source animal id): 117	≤ 2
isolate (source animal id): 118	≤ 2
isolate (source animal id): 119	> 2
isolate (source animal id): 120	> 2
isolate (source animal id): 121	> 2
isolate (source animal id): 122	> 2
isolate (source animal id): 123	≤ 2
isolate (source animal id): 124	> 2
isolate (source animal id): 125	≤ 2
isolate (source animal id): 126	> 2
isolate (source animal id): 127	> 2
isolate (source animal id): 128	≤ 2
isolate (source animal id): 129	≤ 2
isolate (source animal id): 130	> 2
isolate (source animal id): 131	≤ 2
isolate (source animal id): 132	≤ 2
isolate (source animal id): 133	≤ 2
isolate (source animal id): 134	≤ 2
isolate (source animal id): 135	≤ 2
isolate (source animal id): 136	≤ 2
isolate (source animal id): 137	≤ 2
isolate (source animal id): 138	> 2
isolate (source animal id): 139	> 2
isolate (source animal id): 140	≤ 2
isolate (source animal id): 141	> 2
isolate (source animal id): 142	≤ 2
isolate (source animal id): 143	> 2
isolate (source animal id): 144	≤ 2
isolate (source animal id): 145	> 2
isolate (source animal id): 146	≤ 2
isolate (source animal id): 147	> 2
isolate (source animal id): 148	≤ 2
isolate (source animal id): 149	≤ 2
isolate (source animal id): 150	> 2
isolate (source animal id): 151	≤ 2
isolate (source animal id): 152	≤ 2
isolate (source animal id): 153	≤ 2
isolate (source animal id): 154	≤ 2
isolate (source animal id): 155	≤ 2
isolate (source animal id): 156	> 2
isolate (source animal id): 157	≤ 2
isolate (source animal id): 158	≤ 2
isolate (source animal id): 159	≤ 2
isolate (source animal id): 160	> 2
isolate (source animal id): 161	> 2
isolate (source animal id): 162	≤ 2
isolate (source animal id): 163	≤ 2
isolate (source animal id): 164	≤ 2
isolate (source animal id): 165	≤ 2
isolate (source animal id): 166	≤ 2
isolate (source animal id): 167	≤ 2
isolate (source animal id): 168	≤ 2
isolate (source animal id): 169	≤ 2
isolate (source animal id): 170	≤ 2
